Test results published in PubChem BioAssay (NCI).
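Cultured in 96-well plates, cells were exposed to test compound for 48 hours across five concentrations. Here, GI50 denotes the concentration required for 50% inhibition of growth. TGI: total growth inhibition.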

Columns and labels:
Experiment in all cases: NCI-60 cell line screen, 48 h
[1] = tested on: MOLT-4 leukemia
[2] = tested on: CAKI-1 renal
[3] = tested on: OVCAR-3 ovarian
[4] = tested on: SK-OV-3 ovarian
[5] = tested on: MDA-MB-231 breast
[6] = tested on: SK-MEL-2 melanoma
[7] = tested on: SW-620 colon
[8] = tested on: 786-0 renal
[9] = tested on: RPMI-8226 leukemia
[10] = tested on: COLO 205 colon
[11] = tested on: SNB-19 CNS
[12] = tested on: RXF 393 renal
[13] = tested on: A498 renal
[14] = tested on: TK-10 renal
[15] = tested on: SF-268 CNS
[16] = tested on: CCRF-CEM leukemia
[17] = tested on: MDA-N
[18] = tested on: SF-539 CNS
[19] = tested on: ACHN renal
[20] = tested on: NCI-H460 lung
[21] = tested on: SK-MEL-28 melanoma
[22] = tested on: PC-3 prostate
[23] = tested on: KM12 colon
[24] = tested on: HOP-92 NSCLC
[25] = tested on: NCI-H23 lung
[26] = tested on: UACC-257 melanoma
[27] = tested on: UO-31 renal
[28] = tested on: UACC-62 melanoma
[29] = tested on: M14 melanoma
[30] = tested on: HL-60(TB) leukemia
[31] = tested on: K-562 leukemia
[32] = tested on: MDA-MB-435
[33] = tested on: EKVX NSCLC
[34] = tested on: HOP-62 NSCLC
[35] = tested on: NCI-H522 lung
[36] = tested on: NCI/ADR-RES ovarian
[37] = tested on: SR leukemia
[38] = tested on: HT29 colon
[39] = tested on: T-47D breast
[40] = tested on: SF-295 CNS
[41] = tested on: U251 CNS
[42] = tested on: HCT-116 colon
[43] = tested on: HS 578T breast
[44] = tested on: BT-549 breast
[45] = tested on: LOX IMVI melanoma
[46] = tested on: OVCAR-4 ovarian
[47] = tested on: A549 NSCLC
[48] = tested on: IGROV1 ovarian
[49] = tested on: HCT-15 colon
[50] = tested on: MCF7 breast
[51] = tested on: SN12C renal
[52] = tested on: SK-MEL-5 melanoma
[53] = tested on: OVCAR-8 ovarian
[54] = tested on: DU-145 prostate
[55] = tested on: OVCAR-5 ovarian
[56] = tested on: MALME-3M melanoma

Compound `C=C1CC[C@@](C)(c2cc(Br)c(C)cc2OC(C)=O)[C@H]1C` has a GI50 [1] of 9.99 µM, a TGI [1] of 24.8 µM and a GI50 [2] of 14.7 µM. For the same compound, the TGI [2] was 28.8 µM, the GI50 [3] was 14.6 µM and the TGI [3] was 29.2 µM. The GI50 [4] was 16.4 µM, the TGI [4] was 29.9 µM and the GI50 [5] was 12.5 µM. For the same compound, the TGI [5] was 25.9 µM, the GI50 [6] was 13.8 µM and the TGI [6] was 32.4 µM. For the same compound, the GI50 [7] was 11.8 µM, the TGI [7] was 24.6 µM and the GI50 [8] was 12.6 µM. For the same compound, the TGI [8] was 25.4 µM, the GI50 [9] was 9.55 µM and the TGI [9] was 24.9 µM. The GI50 [10] was 17.6 µM, the TGI [10] was 31.3 µM and the GI50 [11] was 15.5 µM. It also gave a TGI [11] of 31.2 µM, a GI50 [12] of 14.8 µM and a TGI [12] of 32.5 µM. For the same compound, the GI50 [13] was 16.8 µM, the TGI [13] was 31.6 µM and the GI50 [14] was 12 µM. It also gave a TGI [14] of 25 µM, a GI50 [15] of 13.2 µM and a TGI [15] of 28.3 µM. It also gave a GI50 [16] of 8.88 µM, a TGI [16] of 26.6 µM and a GI50 [17] of 11.7 µM. The TGI [17] was 26.6 µM, the GI50 [18] was 13.5 µM and the TGI [18] was 26.4 µM. It also gave a GI50 [19] of 13.7 µM, a TGI [19] of 27.3 µM and a GI50 [20] of 11.3 µM. The TGI [20] was 25 µM, the GI50 [21] was 11.7 µM and the TGI [21] was 24 µM. The GI50 [22] was 11.1 µM, the TGI [22] was 24.2 µM and the GI50 [23] was 6.38 µM. For the same compound, the TGI [23] was 21.1 µM, the GI50 [24] was 3.49 µM and the TGI [24] was 16.2 µM. The GI50 [25] was 13.9 µM, the TGI [25] was 28.2 µM and the GI50 [26] was 16.1 µM. It also gave a TGI [26] of 30.2 µM, a GI50 [27] of 13.1 µM and a TGI [27] of 30.5 µM. The GI50 [28] was 7.06 µM, the TGI [28] was 20.1 µM and the GI50 [29] was 15.9 µM. The TGI [29] was 30.6 µM, the GI50 [30] was 11.9 µM and the TGI [30] was 28.2 µM. For the same compound, the GI50 [31] was 14 µM, the TGI [31] was 30.2 µM and the GI50 [32] was 13.3 µM. For the same compound, the TGI [32] was 27.5 µM, the GI50 [33] was 14.7 µM and the TGI [33] was 28.2 µM. The GI50 [34] was 17.5 µM, the TGI [34] was 31.8 µM and the GI50 [35] was 15 µM. The TGI [35] was 31.4 µM, the GI50 [36] was 12.1 µM and the TGI [36] was 25 µM. It also gave a GI50 [37] of 11.2 µM, a TGI [37] of 27.1 µM and a GI50 [38] of 14.9 µM. For the same compound, the TGI [38] was 28.1 µM, the GI50 [39] was 10.7 µM and the TGI [39] was 27.8 µM. The GI50 [40] was 10.7 µM, the TGI [40] was 23.2 µM and the GI50 [41] was 15.2 µM. The TGI [41] was 29.7 µM, the GI50 [42] was 8.81 µM and the TGI [42] was 20.8 µM. For the same compound, the GI50 [43] was 19.3 µM, the TGI [43] was 42.5 µM and the GI50 [44] was 19 µM. For the same compound, the TGI [44] was 34.1 µM, the GI50 [45] was 14.8 µM and the TGI [45] was 31 µM. The GI50 [46] was 3.63 µM, the TGI [46] was 17.4 µM and the GI50 [47] was 12.3 µM. It also gave a TGI [47] of 26.5 µM, a GI50 [48] of 13.2 µM and a TGI [48] of 29.4 µM. For the same compound, the GI50 [49] was 15.1 µM, the TGI [49] was 31.3 µM and the GI50 [50] was 12.8 µM. It also gave a TGI [50] of 28 µM, a GI50 [51] of 11.4 µM and a TGI [51] of 23.8 µM. It also gave a GI50 [52] of 15.6 µM, a TGI [52] of 29.2 µM and a GI50 [53] of 13.2 µM. For the same compound, the TGI [53] was 27.8 µM, the GI50 [54] was 15.9 µM and the TGI [54] was 31.9 µM. The GI50 [55] was 15.1 µM, the TGI [55] was 28.7 µM and the GI50 [56] was 15.2 µM. The TGI [56] was 30.5 µM.
